Reference: patent US20100009957A1, “NOVEL INHIBITORS OF BETA-LACTAMASE” (priority 2006, published 2010)
Like-named read-outs stand apart in the source and are kept apart here. Values belong to the compound of their own block, whether it stands above or below them.

What was measured:
AmpC (P. aeruginosa.) = AmpC (P. aeruginosa.) (Pseudomonas aeruginosa, UniProt P24735); assay: biochemical; settings: nitrocefin substrate, pH 7
Description: The Class C enzyme activities were measured in the presence of the test inhibitor in spectrophotometric assay against the commercially available substrate, nitrocefin. The enzyme AmpC (P. aeruginosa.), and the substrate, were dissolved in 100 mM KH2PO4 buffer (pH 7). The buffer also contains 0.005% BSA. The test inhibitor was dissolved in DMSO and diluted 1:20 in the assay, resulting in a final concentration range of 50 μM to 0.0002 μM. In a 96-well microplate, the test inhibitor was incubated with the beta-lactamase enzyme for 40 minutes at ambient temperature, the substrate solution was added, and the incubation continued for another 40 minutes. The spectrophotomertric reaction was quenched by the addition of 2.5N acetic acid and the absorbance at 492 nm was measured. The IC50 value was determined from semi logarithmic plots of enzyme inhibition versus inhibitor concentration, with a curve generated using a 4-parameter fit.

[1] = tested on: P. aeruginosa strain CL5701; assay: Synergy assay (checkerboard) with imipenem; type: cell-based, Pseudomonas aeruginosa; settings: for In Vitro 2X Synergy CL5701: concentration for 2X synergy with imipenem against P. aeruginosa strain CL5701; for In Vitro 8X Synergy CL5701: concentration for 8X synergy with imipenem against P. aeruginosa strain CL5701; for In Vitro 16X Synergy CL5701: concentration for 16X synergy with imipenem against P. aeruginosa strain CL5701
From the text: The assay determines the concentration of a β-lactamase inhibitor required to reduce the MIC of a β-lactam antibiotic by one-half, one-quarter, one-eighth, one-sixteenth and one-thirty-second against strains of bacteria normally resistant to the antibiotic in question. This is accomplished by titrating the BLI in a serial dilution across a microtiter plate while at the same time titrating the antibiotic in a serial dilution down the microtiter plate and then inoculating the plate with the bacterial strain in question and allowing the bacteria to grow up overnight. Each well in this microplate checkerboard contains a different combination of concentrations of the inhibitor and the antibiotic allowing a full determination of any synergy between the two.
• CL 5701 (Pseudomonas aeruginosa; Pa AmpC)/Imipenem • MB 2646 (Enterobacter cloacae; P99)/Ceftazidime • CL 5513 (Klebsiella pneumoniae; SHV-5)/Ceftazidime • CL 6188 (Acinetobacter baumanii; Oxa40)/Imipenem • CL 6569 (Klebsiella pneumoniae; KPC-2)/Imipenem • CL 5761 (Klebsiella pneumoniae; KPC-3)/Imipenem • CLB 21648 (Acinetobacter baumanii; Ab AmpC)/Imipenem
• 1. […] All wells in row A of MIC 2000 microtiter plates are filled with 100 μL of 2× MHBII+2% DMSO. • 3. […] 100 μL of 2× the final antibiotic concentration wanted is added to wells A2-A12 of the MIC 2000 plates. • 5. 100 μL is serially diluted from row A to row G of each MIC 2000 plate. • 6. 100 μL is removed from each well in row G of each MIC 2000 plate. • 7. 100 μL of 2× the final inhibitor concentration wanted (in MHBII+1% DMSO) is added to all wells in column 1 of the microtiter plates. • 8. 100 μL is serially diluted from column 1 to column 11 of each MIC 2000 plate. • 9. 100 μL is removed from each well in column 11 of each MIC 2000 plate. • 10. Plates are then inoculated with an overnight growth (in TSB) of the strain to be tested using an MIC 2000 inoculator. • 11. Plates are left at 37° C. for about 20 hours and scored for growth by eye.
Synergy may be expressed as a ratio of the minimum inhibitory concentration (MIC) of an antibiotic tested in the absence of a β-lactamase inhibitor to the MIC of the same antibiotic tested in the presence of the β-lactamase inhibitor. […] Alternatively, the synergy effect may be expressed as a factor, again, utilizing a concentration of the BLI to lower the MIC of the antibiotic.
Representative compounds of the present invention display a synergy effect. For example, the compounds of Examples 1 to 20 were determined to have 2× synergy concentrations in a range of from about 100 μM or less.

[2] = P. aeruginosa AmpC IC50, 40 min preincubation
[3] = 40 min preincubation, read-out: P. aeruginosa AmpC IC50

Sequence of AmpC (P. aeruginosa.) (P24735 27-397): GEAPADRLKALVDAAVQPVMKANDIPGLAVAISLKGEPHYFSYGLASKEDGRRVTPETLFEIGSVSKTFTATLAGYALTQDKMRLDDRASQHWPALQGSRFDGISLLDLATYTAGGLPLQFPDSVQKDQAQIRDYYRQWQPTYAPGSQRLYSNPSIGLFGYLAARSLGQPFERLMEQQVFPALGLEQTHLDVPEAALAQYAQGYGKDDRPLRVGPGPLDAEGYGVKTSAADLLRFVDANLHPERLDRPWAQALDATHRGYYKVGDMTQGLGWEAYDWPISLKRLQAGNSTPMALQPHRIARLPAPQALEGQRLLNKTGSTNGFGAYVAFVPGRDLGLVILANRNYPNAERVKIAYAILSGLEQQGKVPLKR

SMILES: O=C(NC1CCCCNCC1)N1CC[C@@H]2[C@H]1C(=O)N2S(=O)(=O)O (single isomer, unassigned; isomer a) [Example 17]
IC50 (AmpC (P. aeruginosa.); [2]): 1.3 µM
In Vitro 2X Synergy CL5701 [1]: 3.1 µM
In Vitro 8X Synergy CL5701 [1]: 12.5 µM
In Vitro 16X Synergy CL5701 [1]: 50 µM

SMILES: O=C(NC1CCCCNCC1)N1CC[C@@H]2[C@H]1C(=O)N2S(=O)(=O)O (single isomer, unassigned; isomer b) [Example 18]
IC50 (AmpC (P. aeruginosa.); [2]): 25 µM
In Vitro 2X Synergy CL5701 [1]: 12.5 µM
In Vitro 8X Synergy CL5701 [1]: >100 µM
In Vitro 16X Synergy CL5701 [1]: >100 µM

SMILES: O=C(NC1CCNCC1)N1CC[C@@H]2[C@H]1C(=O)N2S(=O)(=O)O [Compound A, reference compound]
IC50 (AmpC (P. aeruginosa.); [2]): 6.8 µM
In Vitro 2X Synergy CL5701 [1]: 3.7 µM
In Vitro 8X Synergy CL5701 [1]: 21 µM
In Vitro 16X Synergy CL5701 [1]: 67 µM

SMILES: O=C(N[C@H]1CCCNCC1)N1CC[C@@H]2[C@H]1C(=O)N2S(=O)(=O)O [Example 1]
IC50 (AmpC (P. aeruginosa.); [3]): 1.2 µM
In Vitro 2X Synergy CL5701 [1]: 2.3 µM
In Vitro 16X Synergy CL5701 [1]: 25 µM

SMILES: O=C(NC1CCCCCC1)N1CC[C@@H]2[C@H]1C(=O)N2S(=O)(=O)O [Example 3]
IC50 (AmpC (P. aeruginosa.); [2]): 0.4 µM
In Vitro 2X Synergy CL5701 [1]: 100 µM
In Vitro 8X Synergy CL5701 [1]: >100 µM
In Vitro 16X Synergy CL5701 [1]: >100 µM

Now from value to compound, other results behind:

IC50 (AmpC (P. aeruginosa.); [3]): 4 µM
SMILES: O=C(N[C@@H]1CCCNCC1)N1CC[C@@H]2[C@H]1C(=O)N2S(=O)(=O)O [Example 2]
In Vitro 2X Synergy CL5701 [1]: 3.1 µM
In Vitro 8X Synergy CL5701 [1]: 25 µM
In Vitro 16X Synergy CL5701 [1]: 100 µM

IC50 (AmpC (P. aeruginosa.); [3]): 0.6 µM
SMILES: O=C(N[C@@H]1CNCCOC1)N1CC[C@@H]2[C@H]1C(=O)N2S(=O)(=O)O [Example 7, (1S,5R)-2-{[(6R)-1,4-Oxazepan-6-ylamino]carbonyl}-7-oxo-2,6-diazabicyclo[3.2.0]heptane-6-sulfonic acid]
In Vitro 2X Synergy CL5701 [1]: 6.3 µM
In Vitro 8X Synergy CL5701 [1]: 25 µM
In Vitro 16X Synergy CL5701 [1]: 100 µM

IC50 (AmpC (P. aeruginosa.); [3]): 1.1 µM
SMILES: O=C(N[C@H]1CNCCOC1)N1CC[C@@H]2[C@H]1C(=O)N2S(=O)(=O)O [Example 8, (1S,5R)-2-{[(6S)-1,4-Oxazepan-6-ylamino]carbonyl}-7-oxo-2,6-diazabicyclo[3.2.0]heptane-6-sulfonic acid]
In Vitro 2X Synergy CL5701 [1]: 6.3 µM
In Vitro 8X Synergy CL5701 [1]: 50 µM
In Vitro 16X Synergy CL5701 [1]: 100 µM
